According to patent publication US12305185B2, “Expression vector and method” (MOUNT SPEC I[…] LTD, priority 2018, dated 2025):

System: aRPE-19 human retinal pigmented epithelial cell line
Assay: Activation and deactivation of vector constructs containing luciferase (Nano-Glo luminescence assay)
Assay type: cell-based
Details: luminescence on day 7
Procedure: ARPE-19 cells were seeded as described above. 12-24 hours later, cells were transfected with pAAV-LTetL-luc and pAAV-LCuL-luc. Media was replaced the next day and doxycycline or cumate was added to a subset of cells (FIG. 7). The media from the cells were assayed for the expression of marker gene, luciferase, using the Nano-Glo Luciferase assay on day 4 after having a media change on day 3. The Nano-Glow luciferase assay was performed as described above.
Following the luciferase assay, media was changed in all the wells. A subset of cells activated with doxycycline and cumate were washed to deactivate the vector.
A human retinal pigmented epithelial cell line (aRPE-19) was transfected with vector constructs containing Tet or Cu regulatory sequences driving the expression of the marker gene luciferase. Twenty-four hours later, the cells were treated with or without Tet or Cu and incubated for a further 48 hours before assessing the expression of luciferase. The ability of the system to stop expression of the transgene (Luciferase) was examined by removing the Tet or Cu from the cells by washing prior to re-examining Luciferase expression. Cells without Tet or Cu were used as a control as were cells where Tet or Cu was not removed.

CC(C)c1ccc(C(=O)O)cc1 [Cu, cumate]
luciferase expression on addition of regulator compound (aRPE-19 cells transfected with Tet or Cu regulated luciferase vector): able to induce significant levels of luciferase expression
luciferase expression after removal of regulator compound by washing (aRPE-19 cells, 3 days of washes): significantly less luciferase being detected
